Here are results for five molecules from patent US20210087184A1, “AMINO-BENZOISOTHIAZOLE AND AMINO-BENZOISOTHIADIAZOLE AMIDE COMPOUNDS” (Aerie Pharmaceuticals, Inc., priority 2018, published 2021).

Counter-ions that a name gives are not always drawn.

This test can be described thus: Topical pharmaceutical composition administered to the eyes (Examples 246-253). The test is classed as in vivo. To be noted: for intraocular pressure / neuroprotective agent: 0.50 wt % topical eye drop composition of Example 246. Here is the method: Topical pharmaceutical compositions for lowering intraocular pressure are prepared by conventional methods and formulated as follows: […]
A compound according to this disclosure is used as the 6-aminobenzoisothiazole derivative. […]

The mark [1] stands for this setting: 0.50 wt % topical eye drop composition of Example 246, twice per day.

`O=C(NCc1ccccn1)c1ccc([C@H]2C[C@@H]2C(=O)Nc2ccc3cnsc3c2)cc1` [Example E150, 4-((1S,2S)-2-(benzoisothiazol-6-ylcarbamoyl)cyclopropyl)-N-(pyridin-2-ylmethyl)benzamide]: the intraocular pressure entry is recorded as “substantially decreases”. Under setting [1], the allergic symptoms entry was “substantially decreases” and the dry eye syndrome entry is recorded as “relieves”.

In the case of `CN(C)CC(C(=O)Nc1ccc2cnsc2c1)c1ccsc1` (stereo not drawn) [Example E44, 3-(dimethylamino)-N-(benzoisothiazol-6-yl)-2-(thiophen-3-yl)propanamide dihydrochloride], the “hyperemia, redness and ocular irritation” value (0.50 wt % topical eye drop composition of Example 246, as needed) is on record as “substantially decreases”.

Consider `Cl.Cl.NCC(C(=O)Nc1ccc2cnsc2c1F)c1ccsc1` (stereo not drawn) [3-amino-N-(7-fluoro-benzoisothiazol-6-yl)-2-(thiophen-3-yl)propanamide dihydrochloride], for which the intraocular pressure result is given as “substantially decreases” and the neuroprotective agent result is listed as “serves as a neuroprotective agent”.

As to `NCC(C(=O)Nc1ccc2cnsc2c1)c1ccsc1` (stereo not drawn) [Example E49, 3-amino-N-(benzoisothiazol-6-yl)-2-(thiophen-3-yl)propanamide dihydrochloride], the intraocular pressure entry is “substantially decreases”.

On to `NC(CC(=O)Nc1ccc2cnsc2c1)c1ccsc1` (stereo not drawn) [Example E6, 3-amino-N-(benzoisothiazol-6-yl)-3-(thiophen-3-yl)propanamide dihydrochloride], for which the intraocular pressure entry was “substantially decreases” and the neuroprotective agent entry is on record as “serves as a neuroprotective agent”.
